Source: patent publication US11091497B2, “Pyrano[3,4-b]pyrazine kappa opioid receptor ligands for treating addiction, pruritus, pain, and inflammation” (The Rockefeller University, priority 2017, dated 2021)
Read-outs that look alike come from different tables or passages of the source.

Key:
[1] = target: T1, kappa opioid receptor (PathHunter U2OS hOPRK1 membranes) (Homo sapiens, UniProt P41145); assay: Tritiated U69,593 binding for KOP-R membranes
T1 construct: host or cells: U2OS (PathHunter U2OS hOPRK1 β-arrestin cell line)
T1 sequence (P41145 whole entry): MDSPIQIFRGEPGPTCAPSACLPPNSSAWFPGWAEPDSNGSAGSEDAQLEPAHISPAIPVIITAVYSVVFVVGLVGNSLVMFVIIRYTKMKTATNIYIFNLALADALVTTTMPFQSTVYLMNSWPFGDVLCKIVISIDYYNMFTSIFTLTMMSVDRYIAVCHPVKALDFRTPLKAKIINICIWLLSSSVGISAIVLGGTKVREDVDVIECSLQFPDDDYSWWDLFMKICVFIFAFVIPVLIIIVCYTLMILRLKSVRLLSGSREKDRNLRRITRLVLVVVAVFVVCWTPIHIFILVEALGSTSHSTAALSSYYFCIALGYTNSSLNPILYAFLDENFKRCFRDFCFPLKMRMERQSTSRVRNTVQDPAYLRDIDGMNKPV
Description: Tritiated U69,593 binding for KOP-R membranes; tritiated DAMGO binding for MOP-R membranes; and tritiated DPDPE binding for DOP-R membranes:
(§1) Membranes from cells stably expressing kappa, mu or delta opioid receptor constructs (PathHunter U2OS hOPRK1, CHO-K1 rOPRM1 and CHO-K1 OPRD1 β-arrestin cell line, DiscoverX, Fremont, Calif., USA) were used. Cells were scraped from tissue culture plates, homogenized with a tissue tearor homogenizer in membrane buffer (10 mM Tris, 100 mM NaCl, and 1 mM EDTA; pH 7.4), and centrifuged at 20,000 g for 30 minutes at 4° C. and frozen at −80° C. until use. Prior to use, the pellets were resuspended in binding buffer (50 mm Tris, 100 mm NaCl, pH 7.4), homogenized with a dounce homogenizer and […] incubated with 1.0 nM of the appropriate tritiated ligand ([^3H]U69,593, [^3H]DAMGO or [^3H]DPDPE for kappa, mu or delta binding, respectively) and the appropriate concentration of compound for 60 minutes at 30° C. Membranes with bound tritiated ligand were collected on Whatman GF/B filter paper (Brandel, Gaithersburg, Md., USA) utilizing a Brandel harvester. Bound tritiated ligand was quantified using a TriCarb-2900TR scintillation counter (Packard, Downers Grove, Ill., USA) following addition of 4 ml ReadySafe scintillation fluid (Beckman Coulter, Indianapolis, Ind., USA). Compiled data for each compound was normalized to the maximal binding in the absence of compound, with non-specific binding subtracted. Curve fitting was done in Microcal Origin 17.0 software using logistic sigmoidal fit, to determine IC50. GTPgammaS Membranes from U2OS cells stably expressing human kappa opioid receptors were used. Cells were scraped from tissue culture plates, homogenized with a tissue tearor homogenizer in membrane buffer (10 mM Tris, 100 mM NaCl, and 1 mM EDTA; pH 7.4), and centrifuged at 20,000 g for 30 minutes at 4° C. and frozen at −80° C. until use. Prior to use, the pellets were resuspended in assay buffer (50 mm Tris, 100 mm NaCl, 5 mM MgCl2, and 1 mM EDTA; pH 7.4) and homogenized with a dounce homogenizer and 50 μg incubated with 0.1 nM [35 S]GTPγS, 10 nM GDP, and the appropriate concentration of agonist for 20 minutes at 30° C. To test inhibition, all samples were incubated with 100 nM U69,593 as well as the appropriate concentration of compound. Membranes with bound [35 S]GTPγS were collected on Whatman GF/B filter paper (Brandel, Gaithersburg, Md., USA) utilizing a Brandel harvester. Bound [35 S]GTPγS was quantified using a TriCarb-2900TR scintillation counter (Packard, Downers Grove, Ill., USA) following addition of 4 mL ReadySafe scintillation fluid (Beckman Coulter, Indianapolis, Ind., USA). […] NA indicates not applicable. For each compound, curve fitting was done in Microcal Origin 17.0 software using logistic sigmoidal fit, to determine EC50 and maximal percent stimulation, which in turn was normalized to the maximal percent stimulation of the test full agonist compound U69,593 to determine % efficacy. β2-Arrestin Experiments were conducted using the PathHunter Detection Kit obtained from DiscoverX. Cells stably expressing kappa, mu or delta opioid receptor constructs (PathHunter U2OS hOPRK1, CHO-K1 rOPRM1 and CHO-K1 OPRD1 β-arrestin cell line, DiscoverX, Fremont, Calif., USA) were plated in 96- or 384-well plates. Cells were stimulated with the compounds for 90 minutes at 37° C. To test inhibition, all samples were incubated with 100 nM U69,593 as well as the appropriate concentration of compound. Cells were then incubated for 60 minutes in the presence of galoctosidase substrate, yielding chemiluminescent product. Chemiluminescence was measured using a Synergy Neo microplate reader (BioTek, Winooski, Vt., USA). Antagonism assays were done in the same manner, in the presence of 300 nM U69,593, 1 μM DAMGO or 1 μM DPDPE for KOP-R, MOP-R or DOP-R assays, respectively. […] NA indicates not applicable. […]

[2] = target: T2, human kappa opioid receptors (Homo sapiens, UniProt P41145); assay: [35S]GTPγS stimulation, membranes from U2OS cells; format: biochemical; details: for Emax: read-out: GTPγS stimulation % efficacy
T2 construct: expressed in transfected cells; host or cells: U2OS
T2 sequence (P41145 whole entry): as above
Description: Membranes from cells stably expressing kappa, mu or delta opioid receptor constructs (PathHunter U2OS hOPRK1, CHO-K1 rOPRM1 and CHO-K1 OPRD1 β-arrestin cell line, DiscoverX, Fremont, Calif., USA) were used. Cells were scraped from tissue culture plates, homogenized with a tissue tearor homogenizer in membrane buffer (10 mM Tris, 100 mM NaCl, and 1 mM EDTA; pH 7.4), and centrifuged at 20,000 g for 30 minutes at 4° C. and frozen at −80° C. until use. Prior to use, the pellets were resuspended in binding buffer (50 mm Tris, 100 mm NaCl, pH 7.4), homogenized with a dounce homogenizer and […] incubated with 1.0 nM of the appropriate tritiated ligand ([^3H]U69,593, [^3H]DAMGO or [^3H]DPDPE for kappa, mu or delta binding, respectively) and the appropriate concentration of compound for 60 minutes at 30° C. Membranes with bound tritiated ligand were collected on Whatman GF/B filter paper (Brandel, Gaithersburg, Md., USA) utilizing a Brandel harvester. Bound tritiated ligand was quantified using a TriCarb-2900TR scintillation counter (Packard, Downers Grove, Ill., USA) following addition of 4 ml ReadySafe scintillation fluid (Beckman Coulter, Indianapolis, Ind., USA). Compiled data for each compound was normalized to the maximal binding in the absence of compound, with non-specific binding subtracted. Curve fitting was done in Microcal Origin 17.0 software using logistic sigmoidal fit, to determine IC50. GTPgammaS Membranes from U2OS cells stably expressing human kappa opioid receptors were used. Cells were scraped from tissue culture plates, homogenized with a tissue tearor homogenizer in membrane buffer (10 mM Tris, 100 mM NaCl, and 1 mM EDTA; pH 7.4), and centrifuged at 20,000 g for 30 minutes at 4° C. and frozen at −80° C. until use. Prior to use, the pellets were resuspended in assay buffer (50 mm Tris, 100 mm NaCl, 5 mM MgCl2, and 1 mM EDTA; pH 7.4) and homogenized with a dounce homogenizer and 50 μg incubated with 0.1 nM [35 S]GTPγS, 10 nM GDP, and the appropriate concentration of agonist for 20 minutes at 30° C. To test inhibition, all samples were incubated with 100 nM U69,593 as well as the appropriate concentration of compound. Membranes with bound [35 S]GTPγS were collected on Whatman GF/B filter paper (Brandel, Gaithersburg, Md., USA) utilizing a Brandel harvester. Bound [35 S]GTPγS was quantified using a TriCarb-2900TR scintillation counter (Packard, Downers Grove, Ill., USA) following addition of 4 mL ReadySafe scintillation fluid (Beckman Coulter, Indianapolis, Ind., USA). […] For each compound, curve fitting was done in Microcal Origin 17.0 software using logistic sigmoidal fit, to determine EC50 and maximal percent stimulation, which in turn was normalized to the maximal percent stimulation of the test full agonist compound U69,593 to determine % efficacy. β2-Arrestin Experiments were conducted using the PathHunter Detection Kit obtained from DiscoverX. Cells stably expressing kappa, mu or delta opioid receptor constructs (PathHunter U2OS hOPRK1, CHO-K1 rOPRM1 and CHO-K1 OPRD1 β-arrestin cell line, DiscoverX, Fremont, Calif., USA) were plated in 96- or 384-well plates. Cells were stimulated with the compounds for 90 minutes at 37° C. To test inhibition, all samples were incubated with 100 nM U69,593 as well as the appropriate concentration of compound. Cells were then incubated for 60 minutes in the presence of galoctosidase substrate, yielding chemiluminescent product. Chemiluminescence was measured using a Synergy Neo microplate reader (BioTek, Winooski, Vt., USA). Antagonism assays were done in the same manner, in the presence of 300 nM U69,593, 1 μM DAMGO or 1 μM DPDPE for KOP-R, MOP-R or DOP-R assays, respectively.

[3] = target: T3, kappa opioid receptor (PathHunter U2OS hOPRK1 β-arrestin cell line) (Homo sapiens, UniProt P41145); assay: β-arrestin coupling (PathHunter Detection Kit); format: cell-based; details: for Emax at 10 µM: U2OS; for β-arrestin coupling % efficacy: maximal, normalized to U69,593, No stim = no stimulation at highest dose tested, 10,000 nM
T3 construct: host or cells: U2OS (PathHunter U2OS hOPRK1 β-arrestin cell line)
T3 sequence (P41145 whole entry): as above
Description: as §1

[4] = read-out: β-arrestin coupling % efficacy at 10 μM
[5] = 1.0 nM [3H]U69,593, 60 minutes at 30° C., read-out: Binding IC50
[6] = read-out: β-arrestin coupling % efficacy

Structure (SMILES)	IC50 [1] [nM]	EC50 [2] [nM]	Emax [2] [%]	Emax at 10 µM [3, 4] [%]	β-arrestin coupling % efficacy [3]	IC50 [1, 5] [nM]	EC50 [3] [nM]	Emax at 10 µM [3, 6] [%]	EC50 ([2]; 20 minutes at 30° C., read-out: GTPγS stimulation EC50) [nM]
CCCN1CCN(C(=O)Cc2ccc(Cl)c(Cl)c2)[C@H]2[C@H]1COC[C@@H]2N1CCCC1 (racemic) [Example 5A72]	26	12	111	50					
Cc1ccc(CC(=O)N2CCN[C@@H]3COC[C@H](N4CCCC4)[C@H]32)cc1Cl (racemic) [Example 5A57]	42	62	98	20					
CN(CC1CC1)[C@H]1COC[C@H]2NCCN(C(=O)Cc3ccc(Cl)c(Cl)c3)[C@@H]21 (racemic) [Example 5A50]	297	93	79		No stim				
O=C(Cc1ccc(Cl)c(Cl)c1)N1CCN(Cc2ccccc2)[C@H]2COC[C@@H](N3CCCC3)[C@@H]21 (single isomer, unassigned) [Example 5A53B]	44	4.8	58	80					
CCN(CC)[C@H]1COC[C@H]2NCCN(C(=O)Cc3ccc(Cl)c(Cl)c3)[C@@H]21 (racemic) [Example 5A64]		2120	68		No stim	1920			
O=C(Cc1ccc(Cl)c(Cl)c1)N1CCN(S(=O)(=O)C2CC2)[C@H]2COC[C@@H](N3CCCC3)[C@@H]21 (single isomer, unassigned) [Example 5A52B]	27	18	96	25					
CS(=O)(=O)N1CCN(C(=O)Cc2ccc(Cl)c(Cl)c2)[C@H]2[C@H]1COC[C@@H]2N1CCCC1 (racemic) [Example 5A44]	19	6.7	88				6200	55	
O=C(Cc1ccc(Cl)c(Cl)c1)N1CCN(Cc2ccccc2)[C@@H]2COC[C@H](N3CCCC3)[C@H]21 (single isomer, unassigned) [Example 5A53A]	108	18	80	80					
O=C(Cc1cccc(Cl)c1)N1CCN[C@@H]2COC[C@H](N3CCCC3)[C@H]21 (racemic) [Example 5A24]		213	64		No stim	251			
O=C(Cc1ccc(C(F)(F)F)cc1)N1CCN[C@@H]2COC[C@H](N3CCCC3)[C@H]21 (racemic) [Example 5A49]		109	69			102	11000	36	
O=C(Cc1ccc(Cl)c(Cl)c1)N1CCN(S(=O)(=O)C2CC2)[C@@H]2COC[C@H](N3CCCC3)[C@H]21 (single isomer, unassigned) [Example 5A52A]	3.6	1.7	119	60					
CN(C)[C@H]1COC[C@H]2NCCN(C(=O)Cc3ccc(Cl)c(Cl)c3)[C@@H]21 (racemic) [Example 5A51]		108	71		No stim	120			
CS(=O)(=O)N1CCN(C(=O)Cc2ccc(Cl)c(Cl)c2)[C@H]2[C@H]1COC[C@@H]2N1CCCC1 (single isomer, unassigned) [Example 5A44A]	5.4	3.4	119	80					
O=C(Cc1ccc(Cl)c(F)c1)N1CCN[C@@H]2COC[C@H](N3CCCC3)[C@H]21 (racemic) [Example 5A65]	68		121	20					136
O=C(Cc1ccc(Cl)c(Cl)c1)N1CCN(CC2CCCC2)[C@@H]2COC[C@H](N3CCCC3)[C@H]21 (racemic) [Example 5A54]	73	31	73	20					
O=C(Cc1cccc(C(F)(F)F)c1)N1CCN[C@@H]2COC[C@H](N3CCCC3)[C@H]21 (racemic) [Example 5A26]		130	108			112	3260	42	
